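Cultured in 96-well plates, cells were exposed to test compound for 48 hours across five concentrations. GI50 marks 50% less growth. TGI is the concentration that stops growth completely.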
How the values were obtained:
Experiment in all cases: growth of human tumour cells (NCI), 48 h
786-0 renal = system: 786-0 renal
BT-549 breast = system: BT-549 breast
HCT-116 colon = system: HCT-116 colon
HL-60(TB) leukemia = system: HL-60(TB) leukemia
KM12 colon = system: KM12 colon
OVCAR-8 ovarian = system: OVCAR-8 ovarian
RXF 393 renal = system: RXF 393 renal
SF-539 CNS = system: SF-539 CNS
SW-620 colon = system: SW-620 colon
U251 CNS = system: U251 CNS

SMILES	GI50 (786-0 renal)	TGI (786-0 renal)	GI50 (BT-549 breast)	TGI (BT-549 breast)	GI50 (HCT-116 colon)	TGI (HCT-116 colon)	GI50 (HL-60(TB) leukemia)	TGI (HL-60(TB) leukemia)	GI50 (KM12 colon)	TGI (KM12 colon)	GI50 (OVCAR-8 ovarian)	TGI (OVCAR-8 ovarian)	GI50 (RXF 393 renal)	TGI (RXF 393 renal)	GI50 (SF-539 CNS)	TGI (SF-539 CNS)	GI50 (SW-620 colon)	TGI (SW-620 colon)	GI50 (U251 CNS)	TGI (U251 CNS)
COc1ccc(-n2cc(-c3cc(OC)c(OC)c(OC)c3)[nH]c2=S)cc1OC	> 100 µM	> 100 µM	> 100 µM	> 100 µM	> 100 µM	> 100 µM	> 100 µM	> 100 µM	> 100 µM	> 100 µM	> 100 µM	> 100 µM	> 100 µM	> 100 µM	> 100 µM	> 100 µM	> 100 µM	> 100 µM	> 100 µM	> 100 µM
CN(C)C(=S)SN(C)C(=O)Nc1ccccc1	–	> 74.7 µM	–	> 100 µM	–	> 67.4 µM	–	> 71.7 µM	–	53.8 µM	–	> 93.7 µM	–	6.31 µM	–	> 81.1 µM	–	42.6 µM	–	> 93.8 µM
O=C(C[C@@H](C(=O)NCc1cccc(C(F)(F)F)c1)N1C(=O)[C@@H](N2C(=O)OC[C@@H]2c2ccccc2)[C@H]1/C=C/c1ccccc1)NC1CCN(Cc2ccccc2)CC1	6.51 µM	22.6 µM	2.96 µM	8.81 µM	1.95 µM	4.04 µM	10.4 µM	33.8 µM	3.93 µM	16.7 µM	3.08 µM	–	1.87 µM	4.88 µM	2.03 µM	3.98 µM	3.91 µM	17.3 µM	4.58 µM	17.2 µM
O=[N+]([O-])c1ccc2nnnn2c1	–	> 100 µM	–	> 100 µM	–	50.6 µM	–	74.6 µM	–	> 100 µM	–	> 100 µM	–	> 100 µM	–	65.7 µM	–	> 100 µM	–	84.9 µM
Cn1cc(-c2csc(-c3cccc(F)c3)n2)c2cccnc21	16.1 µM	30.4 µM	20.9 µM	56.1 µM	14.2 µM	27.3 µM	14.4 µM	49.9 µM	16 µM	29.5 µM	26.5 µM	64.3 µM	16 µM	34.4 µM	15.5 µM	30.1 µM	16.7 µM	30.5 µM	15.5 µM	31.8 µM
CC(C)CC(N)C(=O)O (stereo not drawn)	–	> 100 µM	–	> 100 µM	–	> 100 µM	–	> 100 µM	–	> 100 µM	–	> 100 µM	–	> 100 µM	–	> 100 µM	–	> 100 µM	–	> 100 µM
Cc1cc(C)cc(Nc2cc(C)nc3nc(C(F)(F)F)nn23)c1	37.6 µM	> 100 µM	39.6 µM	> 100 µM	85 µM	> 100 µM	> 100 µM	> 100 µM	> 100 µM	> 100 µM	> 100 µM	> 100 µM	24.3 µM	> 100 µM	38.9 µM	> 100 µM	> 100 µM	> 100 µM	> 100 µM	> 100 µM
N#C/C(C(=S)Nc1ccccc1)=C1/NN=C2c3ccccc3C(=O)NN21	38 µM	> 100 µM	24.3 µM	80 µM	29.2 µM	> 100 µM	22 µM	61.7 µM	16.1 µM	58.4 µM	32 µM	> 100 µM	0.512 µM	22.9 µM	18.7 µM	40.9 µM	28.7 µM	> 100 µM	32.1 µM	> 100 µM
CCOC(=O)c1c(C)n(Cc2ccc(OC)cc2)c2c1cc(O)c1[nH]c3c(c12)CCCC3	13.1 µM	49.4 µM	4.21 µM	27.8 µM	2.74 µM	12.1 µM	3.03 µM	> 100 µM	2.04 µM	5.43 µM	3.05 µM	10.9 µM	11.6 µM	43.5 µM	2.76 µM	7.07 µM	3.72 µM	13.9 µM	2.31 µM	5.89 µM
COc1cccc(NCc2nnc(Nc3ccc(Cl)cc3)c3ccccc23)c1	2.22 µM	7.62 µM	1.9 µM	7.42 µM	0.881 µM	4.2 µM	3.78 µM	13.1 µM	0.131 µM	6.52 µM	3.61 µM	14.7 µM	2.16 µM	6.11 µM	3.07 µM	6.56 µM	2.98 µM	8.13 µM	2.78 µM	6.54 µM
CCCCNC(=O)NS(=O)(=O)c1ccc(N2N=C(c3ccc(C)cc3C)CC2c2ccc(N(C)C)cc2)cc1 (stereo not drawn)	5.45 µM	> 100 µM	4.11 µM	37.1 µM	3.86 µM	> 100 µM	3.48 µM	13.6 µM	3.72 µM	> 100 µM	3.68 µM	> 100 µM	4.06 µM	15.7 µM	3.22 µM	14 µM	4.14 µM	> 100 µM	3.59 µM	27.6 µM
CC(C)(C)OC(=O)N(CCCN(CCn1c2c(c3ccccc3c1=O)C(=O)c1ccccc1-2)C(=O)OC(C)(C)C)CCn1c2c(c3ccccc3c1=O)C(=O)c1ccccc1-2	16.5 µM	> 50 µM	> 50 µM	> 50 µM	22.7 µM	> 50 µM	14.1 µM	> 50 µM	> 50 µM	> 50 µM	34.9 µM	> 50 µM	25.9 µM	> 50 µM	> 50 µM	> 50 µM	40.7 µM	> 50 µM	15.2 µM	> 50 µM
C[C@]12CC[C@@H]3c4ccc(O)cc4C[C@@H](CCCCCCCCCS(=O)CCCC(F)(F)C(F)(F)F)[C@H]3[C@@H]1CC[C@@H]2O (stereo partly drawn)	> 100 µM	> 100 µM	> 49.9 µM	> 100 µM	–	> 100 µM	6.53 µM	> 100 µM	> 100 µM	> 100 µM	> 100 µM	> 100 µM	> 78.1 µM	> 100 µM	> 100 µM	> 100 µM	> 100 µM	> 100 µM	> 100 µM	> 100 µM

— PubChem BioAssay (NCI)
